35 molecules from paper PMC2693028 (ChemMedChem, 2008) can be followed below.

For experiment [1], the target named is Enoyl reducase (ENR) from Bacillus anthracis (BaENR) (Bacillus anthracis, UniProt A0A6L8PBX8). Put plainly: biochemical. The note with it: for inhibition at 1 µM: read-out: % inhibition at 1μM.
For experiment [2], the system named is ΔANR B. anthracis. In words: microbe, parasite or virus in culture. It counts as cell-based, Bacillus anthracis.

Values after ≈ are worked out from the molar mass of the structure shown. Values joined by “and” are separate entries in the source; they are usually repeats but may differ in a detail not shown here. Equal values may be shown once. Read-outs that look alike come from different tables or passages of the source. Bounds are passed on as bounds.

Enoyl reducase (ENR) from Bacillus anthracis (BaENR), sequence (A0A6L8PBX8 1-256): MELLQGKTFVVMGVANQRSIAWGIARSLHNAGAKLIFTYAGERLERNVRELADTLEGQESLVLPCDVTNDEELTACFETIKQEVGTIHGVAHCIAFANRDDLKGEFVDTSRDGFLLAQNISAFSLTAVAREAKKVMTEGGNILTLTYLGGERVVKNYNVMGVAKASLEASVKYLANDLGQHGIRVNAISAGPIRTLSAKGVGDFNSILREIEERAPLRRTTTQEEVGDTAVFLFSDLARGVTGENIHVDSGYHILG

`CCCc1ccc(Oc2cccc(-c3ccccc3)c2)c(O)c1` [Compound 36, 2-(Biphenyl-3-yloxy)-5-propylphenol]: the IC50 (in general, the concentration that gives 50% inhibition) in experiment [1] came out at 0.5 ± 0.1 µM. Moreover, in experiment [2] (Bacillus anthracis), the MIC is 1.9 µg/mL (≈ 6.24 µM).
On to `CCCc1ccc(Oc2cccc(C(=O)OC)c2)c(O)c1` [Compound 37, 3-(2-Hydroxy-4-propylphenoxy)benzoic acid methyl ester], for which, in experiment [1] (IC50), the half-maximal inhibitory concentration (IC50) was determined as 2 ± 0.3 µM. The molecule further registered an MIC in experiment [2] (Bacillus anthracis) of 3.6 µg/mL (≈ 12.6 µM).
In the same order, the values of `CCCc1ccc(Oc2ccc([N+](=O)[O-])cc2[N+](=O)[O-])c(O)c1` [Compound 10, 2-(2,4-Dinitrophenoxy)-5-propylphenol] are 3.6 ± 0.8 µM and 4 µg/mL (≈ 12.6 µM).
Turning to “3-[3-(2-Hydroxy-4-propylphenoxy)phenyl]propionic acid [Compound 50]”, in experiment [1], the % inhibition – broadly, how much of the control response was suppressed – at 1μM is on record as 17.9%. In experiment [2], this molecule displayed an MIC of 14.9 µg/mL.
On to `Oc1cc(Cl)ccc1Oc1cccc(Oc2ccc(Cl)cc2O)c1` [Compound 33, 2-[3-(2-Hydroxy-4-chlorophenoxy)phenoxy]-5-chlorophenol], for which, in experiment [1], the inhibition (usually the drop in the measured response relative to a control, in per cent) at 1 µM is 9.9%. In experiment [2] (Bacillus anthracis), this molecule yielded an MIC of 2.3 µg/mL (≈ 6.33 µM).
In turn, `CCCc1ccc(Oc2cccc(C=CC(=O)OC)c2)c(O)c1` [Compound 48, 3-[3-(2-Hydroxy-4-propylphenoxy)phenyl]acrylic acid methyl ester] displayed an IC50 in experiment [1] (IC50) above 6.25 µM. For the same molecule, the MIC in experiment [2] (Bacillus anthracis) is 2 µg/mL (≈ 6.4 µM).
Turning to `Oc1cc(Cl)ccc1Oc1ccc(Oc2ccc(Cl)cc2O)cc1` [Compound 32, 2-[4-(2-Hydroxy-4-Chlorophenoxy)phenoxy]-5-chlorophenol], in experiment [1], the inhibition at 1 µM amounted to 15.5%. This molecule registered an MIC in experiment [2] (Bacillus anthracis) above 145 µg/mL.
Turning to `CCCc1ccc(Oc2cccc(Oc3ccc(CCC)cc3O)c2)c(O)c1` [Compound 34, 2-[3-(2-Hydroxy-4-propylphenoxy)phenoxy]-5-Propylphenol], the inhibition at 1 µM in experiment [1] amounted to 20.6%. The MIC in experiment [2] (Bacillus anthracis) is 1.2 µg/mL (≈ 3.17 µM).
The molecule `CCCc1ccc(Oc2ccc(C(C)=O)cc2)c(O)c1` [Compound 40, 1-[4-(2-Hydroxy-4-propylphenoxy)phenyl]ethanone] came in with an IC50 in experiment [1] (IC50) of 0.8 ± 0.1 µM. The molecule also registered an MIC in experiment [2] (Bacillus anthracis) of 13.5 µg/mL (≈ 49.9 µM).
For the molecule `O=C(O)c1cc(Cl)ccc1Oc1ccccc1` [Compound 14, 5-Chloro-2-phenoxybenzoic acid], the inhibition at 1 µM in experiment [1] is 0%.
For the molecule `Oc1ccc(Oc2ccc(Cl)cc2O)cc1` [Compound 3, 5-Chloro-2-(4-hydroxyphenoxy)phenol], in experiment [1], the inhibition at 1 µM amounted to 2.6%. Besides, the MIC in experiment [2] (Bacillus anthracis) is above 64 µg/mL.
In the case of `O=[N+]([O-])c1ccc(Oc2ccc(Cl)cc2O)cc1` [Compound 4, 5-Chloro-2-(4-nitrophenoxy)phenol], in experiment [2] (Bacillus anthracis), the MIC is 3.3 µg/mL (≈ 12.4 µM).
Regarding `Oc1cc(CNCc2ccccc2)ccc1Oc1ccccc1` [Compound 31, 5-(Benzylaminomethyl)-2-phenoxyphenol], the inhibition at 1 µM in experiment [1] was found to be 7.9%. Moreover, the MIC in experiment [2] (Bacillus anthracis) is above 122 µg/mL.
With `CCCc1ccc(Oc2cccc(CCC(=O)OC)c2)c(O)c1` [Compound 49, 3-[3-(2-Hydroxy-4-propylphenoxy)phenyl]propionic acid methyl ester], in experiment [1] (IC50), the half-inhibitory concentration (IC50) was found to be 7.5 ± 1.9 µM. This molecule displayed an MIC in experiment [2] (Bacillus anthracis) of 7.9 µg/mL (≈ 25.1 µM).
Take `NC(=O)c1cc(Cl)ccc1Oc1ccccc1` [Compound 17, 5-Chloro-2-phenoxybenzamide]: the inhibition at 1 µM in experiment [1] amounted to 0%.
For the molecule `CCCc1ccc(Oc2ccc(SC)cc2)c(O)c1` [Compound 41, 2-(4-Methylsulfanylphenoxy)-5-propylphenol], half-maximal inhibition in experiment [1] (IC50) (IC50) was put at 0.6 µM. Besides, in experiment [2] (Bacillus anthracis), the MIC was 13.5 µg/mL (≈ 49.2 µM).
The molecule `CCCc1ccc(Oc2cccc(CCO)c2)c(O)c1` [Compound 13, 2-[3-(2-Hydroxy-ethyl)phenoxy]-5-propylphenol] registered an IC50 in experiment [1] of 6 ± 1.5 µM. The same molecule showed an MIC in experiment [2] (Bacillus anthracis) of 1.7 µg/mL (≈ 6.24 µM).
Turning to `CC(=O)Nc1ccc(Oc2ccc(Cl)cc2O)cc1` [Compound 18, N-[4-(4-Chloro-2-hydroxy-phenoxy)phenyl]acetamide], in experiment [1], the inhibition at 1 µM came out at 1.6%. Also, the MIC in experiment [2] (Bacillus anthracis) turned out to be 111 µg/mL (≈ 400 µM).
Consider `CCCc1ccc(Oc2cccc(CCC(=O)O)c2)c(O)c1` [Compound 51, 3-[3-(2-Hydroxy-4-propylphenoxy)phenyl]propionic acid], for which the inhibition at 1 µM in experiment [1] was 17.6%. In experiment [2] (Bacillus anthracis), this molecule had an MIC of 60.1 µg/mL (≈ 200 µM).
With `CCCc1ccc(Oc2cccc([N+](=O)[O-])c2)c(O)c1` [Compound 9, 2-(3-Nitrophenoxy)-5-propylphenol], the IC50 in experiment [1] (IC50) was above 0.8 µM. The molecule further displayed an MIC in experiment [2] (Bacillus anthracis) of 1.7 µg/mL (≈ 6.22 µM).
In the same order, the values of `CCCc1ccc(Oc2ccc(C(N)=O)cc2Cl)c(O)c1` [Compound 15, 3-Chloro-4-(2-hydroxy-4-propylphenoxy)benzamide] are 1.1 ± 0.1 µM and 30.6 µg/mL (≈ 100 µM).
`CCCC(C)NCc1ccc(Oc2ccccc2)c(O)c1` (centres unmarked) [Compound 29, 5-[(1-Methyl-butylamino)methyl]-2-phenoxyphenol]: the inhibition at 1 µM in experiment [1] is 0%. The molecule also had an MIC in experiment [2] (Bacillus anthracis) above 109 µg/mL.
`Oc1cc(Cl)ccc1Oc1ccc(-c2ccccc2)cc1` [Compound 7, 2-(Biphenyl-4-yloxy)-5-chlorophenol]: in experiment [1] (IC50), the IC50 was above 6.25 µM. In experiment [2] (Bacillus anthracis), the MIC came out at 1.9 µg/mL (≈ 6.4 µM).
As to `OCc1ccc(Oc2ccccc2)c(O)c1` [Compound 28, 5-Hydroxymethyl-2-phenoxyphenol], in experiment [1], the inhibition at 1 µM came to 5%. Besides, the MIC in experiment [2] (Bacillus anthracis) was 43 µg/mL (≈ 199 µM).
On to `Clc1ccc(Oc2ccc(Cl)cc2Oc2cccnc2)c(Cl)c1` [Compound 52, 3-[5-Chloro-2-(2,4-dichlorophenoxy)phenoxy]pyridine], for which the inhibition at 1 µM in experiment [1] came to 0.5%.
`CCCc1ccc(Oc2ccc([N+](=O)[O-])cc2)c(O)c1` [Compound 8, 2-(4-Nitrophenoxy)-5-propylphenol] had an IC50 in experiment [1] (IC50) of 1.1 ± 0.1 µM. In experiment [2] (Bacillus anthracis), this molecule displayed an MIC of 3.4 µg/mL (≈ 12.4 µM).
As to `CCCc1ccc(Oc2ccc(Oc3ccc(CCC)cc3O)cc2)c(O)c1` [Compound 35, 2-[4-(2-Hydroxy-4-propylphenoxy)phenoxy]-5-propylphenol], the inhibition at 1 µM in experiment [1] is 10%. Further, the MIC in experiment [2] (Bacillus anthracis) is above 151 µg/mL.
For the molecule `O=[N+]([O-])c1ccc(Oc2ccccc2)c(O)c1` [Compound 2, 5-Nitro-2-phenoxyphenol], in experiment [1] (IC50), the IC50 was above 50 µM. In experiment [2] (Bacillus anthracis), the MIC was 5.8 µg/mL (≈ 25.1 µM).
In the same order, the values of `CCCc1ccc(Oc2ccc([S+](C)[O-])cc2)c(O)c1` (centres unmarked) [Compound 43, 2-(4-Methanesulfinylphenoxy)-5-propylphenol] are 3.6 ± 0.3 µM and 116 µg/mL (≈ 399 µM).
With `OCC(O)Cc1ccc(Oc2ccccc2)c(O)c1` (centres unmarked) [Compound 26, 3-(3-Hydroxy-4-phenoxyphenyl)propane-1,2-diol], the inhibition at 1 µM in experiment [1] was determined as 9.8%. This molecule showed an MIC in experiment [2] (Bacillus anthracis) above 104 µg/mL.
As to `Nc1ccc(Oc2ccc(Cl)cc2O)cc1` [Compound 20, 2-(4-Aminophenoxy)-5-chlorophenol], the IC50 in experiment [1] (IC50) is 7 µM and 7.1 µM. The molecule also showed an MIC in experiment [2] (Bacillus anthracis) of 12 µg/mL (≈ 50.9 µM).
In the case of `CCCc1ccc(Oc2cccc(C(=O)O)c2)c(O)c1` [Compound 39, 3-(2-Hydroxy-4-propylphenoxy)benzoic acid], the inhibition at 1 µM in experiment [1] is 9.2%. In addition, the MIC in experiment [2] (Bacillus anthracis) worked out at 6.8 µg/mL (≈ 25 µM).
For `O=[N+]([O-])c1ccccc1Oc1ccc(Cl)cc1O` [Compound 5, 5-Chloro-2-(2-nitrophenoxy)phenol], in experiment [1] (IC50), the IC50 was 7.7 ± 0.7 µM. The same molecule gave an MIC in experiment [2] (Bacillus anthracis) of 13.3 µg/mL (≈ 50.1 µM).
For `CCCc1ccc(Oc2ccc(N)cc2)c(O)c1` [Compound 21, 2-(4-Aminophenoxy)-5-propylphenol], in that order: 8.8 ± 1 µM and above 97 µg/mL.
Turning to `OCc1cc(Cl)ccc1Oc1ccccc1` [Compound 16, 5-Chloro-2-phenoxyphenylmethanol], the inhibition at 1 µM in experiment [1] stood at 1.8%.
